Measured values published in PMC9653409, “Generative deep learning enables the discovery of a potent and selective RIPK1 inhibitor” (Nature Communications, 2022).

Tests used:
Assay in all cases: Kinase inhibitory activity profiling of RI-962@10 µM (406 kinases, Eurofins)
Type in all cases: biochemical
[1] = target: panel of human kinases (kinase named in endpoint) (Homo sapiens, UniProt O60285); conditions: 10 µM; read-out: Activity (%), ARK5(h)
How it was run: (§1)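 Radiometric filter-binding kinase assays: enzyme preincubated 15 min with compound in 8 mM MOPS pH 7.0, 0.2 mM EDTA, 250 μM peptide substrate, 10 mM magnesium acetate, 10 μM [γ-33P]-ATP. Reaction started with Mg/ATP, run 40 min at room temperature, stopped with phosphoric acid; 33P incorporation read by scintillation counting. Other kinases by similar protocols.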

[2] = target: panel of human kinases (kinase named in endpoint) (Homo sapiens, UniProt O60674); conditions: 10 µM; read-out: Activity (%), JAK2(h)
How it was run: as §1

[3] = target: panel of human kinases (kinase named in endpoint) (Homo sapiens, UniProt O94804); conditions: 10 µM; read-out: Activity (%), LOK(h)
How it was run: as §1

[4] = target: panel of human kinases (kinase named in endpoint) (Homo sapiens, UniProt P16591); conditions: 10 µM; read-out: Activity (%), Fer(h)
How it was run: as §1

[5] = target: panel of human kinases (kinase named in endpoint) (Homo sapiens, UniProt P29597); conditions: 10 µM; read-out: Activity (%), TYK2(h)
How it was run: as §1

[6] = target: panel of human kinases (kinase named in endpoint) (Homo sapiens, UniProt P49761); conditions: 10 µM; read-out: Activity (%), CLK3(h)
How it was run: as §1

[7] = target: panel of human kinases (kinase named in endpoint) (Homo sapiens, UniProt P51957); conditions: 10 µM; read-out: Activity (%), NEK4(h)
How it was run: as §1

[8] = target: panel of human kinases (kinase named in endpoint) (Homo sapiens, UniProt Q02763); conditions: 10 µM; read-out: Activity (%), Tie2 (h)
How it was run: as §1

[9] = target: panel of human kinases (kinase named in endpoint) (Homo sapiens, UniProt Q07002); conditions: 10 µM; read-out: Activity (%), CDK18/cyclinY(h)
How it was run: as §1

[10] = target: panel of human kinases (kinase named in endpoint) (Homo sapiens, UniProt Q07912); conditions: 10 µM; read-out: Activity (%), ACK1(h)
How it was run: as §1

[11] = target: panel of human kinases (kinase named in endpoint) (Homo sapiens, UniProt Q13043); conditions: 10 µM; read-out: Activity (%), MST1(h)
How it was run: as §1

[12] = target: panel of human kinases (kinase named in endpoint) (Homo sapiens, UniProt Q13464); conditions: 10 µM; read-out: Activity (%), ROCK-I(h)
How it was run: as §1

[13] = target: panel of human kinases (kinase named in endpoint) (Homo sapiens, UniProt Q14004); conditions: read-out: Activity (%), CDK13/cyclinK(h)
How it was run: as §1

[14] = target: panel of human kinases (kinase named in endpoint) (Homo sapiens, UniProt Q16513); conditions: 10 µM; read-out: Activity (%), PRK2(h)
How it was run: as §1

[15] = target: panel of human kinases (kinase named in endpoint) (Homo sapiens, UniProt Q8IVH8); conditions: 10 µM; read-out: Activity (%), MAP4K3(h)
How it was run: as §1

[16] = target: panel of human kinases (kinase named in endpoint) (Homo sapiens, UniProt Q8IW41); conditions: 10 µM; read-out: Activity (%), PRAK(h)
How it was run: as §1

[17] = target: panel of human kinases (kinase named in endpoint) (Homo sapiens, UniProt Q8IYT8); conditions: 10 µM; read-out: Activity (%), ULK2(h)
How it was run: as §1

[18] = target: panel of human kinases (kinase named in endpoint) (Homo sapiens, UniProt Q8TDX7); conditions: 10 µM; read-out: Activity (%), NEK7(h)
How it was run: as §1

[19] = target: panel of human kinases (kinase named in endpoint) (Homo sapiens, UniProt Q92519); conditions: 10 µM; read-out: Activity (%), TRB2(h)
How it was run: as §1

[20] = target: panel of human kinases (kinase named in endpoint) (Homo sapiens, UniProt Q9H2K8); conditions: 10 µM; read-out: Activity (%), TAO3(h)
How it was run: as §1

[21] = target: panel of human kinases (kinase named in endpoint) (Homo sapiens, UniProt Q9NY57); conditions: 10 µM; read-out: Activity (%), STK32B(h)
How it was run: as §1

[22] = target: panel of human kinases (kinase named in endpoint) (Homo sapiens, UniProt Q9NYV4); conditions: 10 µM; read-out: Activity (%), CDK12/cyclinK(h)
How it was run: as §1

[23] = target: panel of human kinases (kinase named in endpoint) (Homo sapiens, UniProt Q9UEE5); conditions: 10 µM; read-out: Activity (%), DRAK1(h)
How it was run: as §1

[24] = target: panel of human kinases (kinase named in endpoint) (Homo sapiens, UniProt Q9UKE5); conditions: 10 µM; read-out: Activity (%), TNIK(h)
How it was run: as §1

[25] = target: panel of human kinases (kinase named in endpoint) (Homo sapiens, UniProt Q9UQ07); conditions: 10 µM; read-out: Activity (%), MOK(h)
How it was run: as §1

[26] = target: panel of human kinases (kinase named in endpoint) (Homo sapiens, UniProt Q9Y2U5); conditions: 10 µM; read-out: Activity (%), MEKK2(h)
How it was run: as §1

Chain of panel of human kinases (kinase named in endpoint) (Homo sapiens, UniProt Q8IVH8) (Q8IVH8 whole entry): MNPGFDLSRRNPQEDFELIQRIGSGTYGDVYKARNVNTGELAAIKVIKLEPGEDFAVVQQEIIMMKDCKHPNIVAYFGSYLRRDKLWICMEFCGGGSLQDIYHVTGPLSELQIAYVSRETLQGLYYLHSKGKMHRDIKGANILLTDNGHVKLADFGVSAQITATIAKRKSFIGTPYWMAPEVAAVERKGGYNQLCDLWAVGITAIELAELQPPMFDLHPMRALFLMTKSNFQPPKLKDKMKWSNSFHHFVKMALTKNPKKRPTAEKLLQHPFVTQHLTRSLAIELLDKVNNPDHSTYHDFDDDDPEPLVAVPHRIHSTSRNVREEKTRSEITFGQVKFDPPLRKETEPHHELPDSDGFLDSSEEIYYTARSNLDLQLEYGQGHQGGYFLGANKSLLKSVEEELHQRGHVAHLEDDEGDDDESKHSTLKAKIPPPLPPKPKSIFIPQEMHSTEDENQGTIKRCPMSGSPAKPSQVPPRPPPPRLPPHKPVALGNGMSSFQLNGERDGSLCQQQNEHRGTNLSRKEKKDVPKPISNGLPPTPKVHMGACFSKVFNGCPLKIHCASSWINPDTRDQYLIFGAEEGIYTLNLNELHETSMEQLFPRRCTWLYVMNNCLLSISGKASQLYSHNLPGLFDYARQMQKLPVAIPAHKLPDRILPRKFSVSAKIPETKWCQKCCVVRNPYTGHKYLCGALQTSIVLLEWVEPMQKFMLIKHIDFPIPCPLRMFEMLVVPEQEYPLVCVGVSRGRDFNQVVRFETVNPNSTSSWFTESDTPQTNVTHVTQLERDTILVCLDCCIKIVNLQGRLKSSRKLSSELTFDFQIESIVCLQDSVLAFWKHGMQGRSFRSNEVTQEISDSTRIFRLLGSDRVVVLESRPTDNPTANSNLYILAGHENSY
Chain of panel of human kinases (kinase named in endpoint) (Homo sapiens, UniProt Q14004) (Q14004 whole entry): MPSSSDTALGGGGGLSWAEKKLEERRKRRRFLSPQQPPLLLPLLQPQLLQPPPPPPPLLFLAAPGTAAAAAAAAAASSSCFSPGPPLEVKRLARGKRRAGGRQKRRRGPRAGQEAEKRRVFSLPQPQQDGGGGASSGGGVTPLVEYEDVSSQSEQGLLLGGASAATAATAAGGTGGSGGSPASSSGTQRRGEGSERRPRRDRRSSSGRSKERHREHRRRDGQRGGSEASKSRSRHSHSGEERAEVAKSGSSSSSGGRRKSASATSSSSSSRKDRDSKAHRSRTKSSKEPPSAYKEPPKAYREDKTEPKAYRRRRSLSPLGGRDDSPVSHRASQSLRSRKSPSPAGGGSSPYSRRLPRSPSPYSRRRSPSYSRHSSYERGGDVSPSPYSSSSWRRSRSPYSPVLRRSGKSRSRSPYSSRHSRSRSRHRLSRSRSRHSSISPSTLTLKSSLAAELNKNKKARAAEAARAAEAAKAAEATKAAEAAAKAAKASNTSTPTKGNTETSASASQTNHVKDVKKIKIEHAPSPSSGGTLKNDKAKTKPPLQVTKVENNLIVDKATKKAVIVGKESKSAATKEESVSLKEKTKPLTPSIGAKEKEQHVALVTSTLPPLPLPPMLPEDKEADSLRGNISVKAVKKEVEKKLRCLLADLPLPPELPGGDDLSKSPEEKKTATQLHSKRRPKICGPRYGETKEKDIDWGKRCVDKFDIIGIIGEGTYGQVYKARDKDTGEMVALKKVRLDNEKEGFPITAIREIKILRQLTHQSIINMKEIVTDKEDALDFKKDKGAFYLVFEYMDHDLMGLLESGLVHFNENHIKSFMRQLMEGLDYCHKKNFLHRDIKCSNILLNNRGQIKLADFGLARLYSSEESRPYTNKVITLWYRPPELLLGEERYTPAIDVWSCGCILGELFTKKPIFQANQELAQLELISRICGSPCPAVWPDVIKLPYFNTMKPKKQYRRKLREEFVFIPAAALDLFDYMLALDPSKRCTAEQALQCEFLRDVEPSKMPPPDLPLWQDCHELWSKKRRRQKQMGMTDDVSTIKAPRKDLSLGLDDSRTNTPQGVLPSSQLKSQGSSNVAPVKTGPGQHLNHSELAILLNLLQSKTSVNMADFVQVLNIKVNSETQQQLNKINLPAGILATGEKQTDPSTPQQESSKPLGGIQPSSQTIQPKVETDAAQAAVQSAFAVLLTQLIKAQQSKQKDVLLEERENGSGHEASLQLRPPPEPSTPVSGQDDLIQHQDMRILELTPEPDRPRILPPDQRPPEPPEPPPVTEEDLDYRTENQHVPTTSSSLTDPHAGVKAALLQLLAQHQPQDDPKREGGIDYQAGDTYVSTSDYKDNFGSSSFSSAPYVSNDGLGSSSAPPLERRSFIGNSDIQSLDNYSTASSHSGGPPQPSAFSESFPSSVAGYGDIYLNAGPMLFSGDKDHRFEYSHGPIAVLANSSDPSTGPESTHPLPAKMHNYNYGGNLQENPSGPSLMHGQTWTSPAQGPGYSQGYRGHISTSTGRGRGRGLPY
Chain of panel of human kinases (kinase named in endpoint) (Homo sapiens, UniProt Q9H2K8) (Q9H2K8 whole entry): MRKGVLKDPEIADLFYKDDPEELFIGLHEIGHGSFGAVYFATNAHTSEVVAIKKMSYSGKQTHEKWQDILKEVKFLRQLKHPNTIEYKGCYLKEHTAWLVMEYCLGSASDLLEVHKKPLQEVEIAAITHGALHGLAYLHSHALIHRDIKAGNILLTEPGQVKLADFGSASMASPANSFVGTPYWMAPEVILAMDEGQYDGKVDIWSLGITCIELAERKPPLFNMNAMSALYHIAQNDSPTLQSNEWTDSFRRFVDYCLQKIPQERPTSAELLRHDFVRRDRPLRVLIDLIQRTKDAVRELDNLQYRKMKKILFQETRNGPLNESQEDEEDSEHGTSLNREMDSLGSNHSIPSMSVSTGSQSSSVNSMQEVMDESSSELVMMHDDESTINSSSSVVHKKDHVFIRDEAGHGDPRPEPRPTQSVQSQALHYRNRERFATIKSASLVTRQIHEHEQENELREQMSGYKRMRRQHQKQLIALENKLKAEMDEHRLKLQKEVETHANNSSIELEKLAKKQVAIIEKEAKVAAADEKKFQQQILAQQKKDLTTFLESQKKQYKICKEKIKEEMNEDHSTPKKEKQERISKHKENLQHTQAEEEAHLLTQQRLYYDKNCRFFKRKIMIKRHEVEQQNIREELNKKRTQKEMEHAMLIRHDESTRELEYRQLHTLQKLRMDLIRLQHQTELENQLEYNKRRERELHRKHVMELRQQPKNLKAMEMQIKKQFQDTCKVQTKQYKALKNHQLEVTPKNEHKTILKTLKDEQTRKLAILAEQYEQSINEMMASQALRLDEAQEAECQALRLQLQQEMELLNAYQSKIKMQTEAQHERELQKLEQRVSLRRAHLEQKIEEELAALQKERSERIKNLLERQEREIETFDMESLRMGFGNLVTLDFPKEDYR
Chain of panel of human kinases (kinase named in endpoint) (Homo sapiens, UniProt Q8IYT8) (Q8IYT8 whole entry): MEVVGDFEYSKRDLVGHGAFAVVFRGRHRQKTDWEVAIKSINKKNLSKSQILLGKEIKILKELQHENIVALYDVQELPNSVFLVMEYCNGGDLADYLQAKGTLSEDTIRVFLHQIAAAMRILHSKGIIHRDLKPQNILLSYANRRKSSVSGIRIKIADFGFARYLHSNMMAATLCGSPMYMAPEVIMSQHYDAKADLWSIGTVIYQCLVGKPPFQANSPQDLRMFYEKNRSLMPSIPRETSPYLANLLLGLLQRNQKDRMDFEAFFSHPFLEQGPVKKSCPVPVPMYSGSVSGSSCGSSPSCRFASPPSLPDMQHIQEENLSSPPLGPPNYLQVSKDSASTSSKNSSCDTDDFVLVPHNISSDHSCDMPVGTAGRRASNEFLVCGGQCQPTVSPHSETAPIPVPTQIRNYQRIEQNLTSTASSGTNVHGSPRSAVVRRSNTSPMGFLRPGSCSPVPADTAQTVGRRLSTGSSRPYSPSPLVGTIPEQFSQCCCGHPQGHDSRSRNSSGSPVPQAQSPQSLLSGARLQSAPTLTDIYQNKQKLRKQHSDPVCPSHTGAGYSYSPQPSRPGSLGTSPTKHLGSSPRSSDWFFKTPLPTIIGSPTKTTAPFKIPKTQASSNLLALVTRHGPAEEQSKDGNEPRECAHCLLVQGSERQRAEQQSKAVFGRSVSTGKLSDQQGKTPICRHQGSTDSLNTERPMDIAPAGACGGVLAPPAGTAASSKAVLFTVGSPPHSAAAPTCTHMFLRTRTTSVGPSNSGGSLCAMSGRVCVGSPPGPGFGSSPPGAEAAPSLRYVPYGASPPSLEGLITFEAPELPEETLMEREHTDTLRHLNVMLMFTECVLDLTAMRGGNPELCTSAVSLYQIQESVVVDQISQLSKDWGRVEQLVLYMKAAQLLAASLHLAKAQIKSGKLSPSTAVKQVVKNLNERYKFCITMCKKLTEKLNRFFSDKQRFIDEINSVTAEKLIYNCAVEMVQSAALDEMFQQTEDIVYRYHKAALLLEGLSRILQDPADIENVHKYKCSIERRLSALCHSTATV
Chain of panel of human kinases (kinase named in endpoint) (Homo sapiens, UniProt Q8TDX7) (Q8TDX7 whole entry): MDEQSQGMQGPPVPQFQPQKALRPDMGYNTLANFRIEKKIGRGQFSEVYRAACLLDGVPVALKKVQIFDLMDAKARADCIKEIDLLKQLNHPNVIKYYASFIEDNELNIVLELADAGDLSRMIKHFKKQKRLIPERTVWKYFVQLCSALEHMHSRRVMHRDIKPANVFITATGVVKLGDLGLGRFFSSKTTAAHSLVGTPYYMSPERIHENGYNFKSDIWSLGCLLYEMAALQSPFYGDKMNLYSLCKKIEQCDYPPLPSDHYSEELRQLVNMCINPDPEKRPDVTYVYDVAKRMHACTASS
Chain of panel of human kinases (kinase named in endpoint) (Homo sapiens, UniProt Q9UEE5) (Q9UEE5 whole entry): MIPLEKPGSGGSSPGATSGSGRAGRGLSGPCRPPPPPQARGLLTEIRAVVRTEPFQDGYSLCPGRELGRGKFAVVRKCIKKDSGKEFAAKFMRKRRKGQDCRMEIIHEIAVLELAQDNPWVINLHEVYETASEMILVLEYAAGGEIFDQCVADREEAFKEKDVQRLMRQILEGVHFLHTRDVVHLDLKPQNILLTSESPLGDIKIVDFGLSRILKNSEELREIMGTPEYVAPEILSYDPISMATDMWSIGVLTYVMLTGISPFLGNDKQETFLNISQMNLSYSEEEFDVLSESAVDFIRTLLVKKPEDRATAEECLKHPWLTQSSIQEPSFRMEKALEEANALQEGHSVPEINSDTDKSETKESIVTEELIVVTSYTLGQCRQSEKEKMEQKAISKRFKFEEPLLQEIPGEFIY

CC(C)C(=O)Nc1nc2cc(-c3ccc4c(c3)c(C(=O)NC(C)c3ccccc3)cn4C)ccn2n1 (centres unmarked) [RI-962]
activity at 10 µM [1]: 83%
activity at 10 µM [2]: 107%
activity at 10 µM [3]: 108%
activity at 10 µM [4]: 107%
activity at 10 µM [5]: 113%
activity at 10 µM [6]: 94%
activity at 10 µM [7]: 104%
activity at 10 µM [8]: 90%
activity at 10 µM [9]: 119%
activity at 10 µM [10]: 100%
activity at 10 µM [11]: 95%
activity at 10 µM [12]: 99%
activity at 10 µM [13]: 100%
activity at 10 µM [14]: 101%
activity at 10 µM [15]: 85%
activity at 10 µM [16]: 64%
activity at 10 µM [17]: 89%
activity at 10 µM [18]: 85%
activity at 10 µM [19]: 91%
activity at 10 µM [20]: 86%
activity at 10 µM [21]: 85%
activity at 10 µM [22]: 117%
activity at 10 µM [23]: 100%
activity at 10 µM [24]: 65%
activity at 10 µM [25]: 88%
activity at 10 µM [26]: 98%
